Data published in patent US20100130604A1, “USE OF ROSMARINIC ACID IN MANUFACTURE OF MEDICAMENTS FOR TREATING OR PREVENTING HEPATIC AND RENAL DISEASES” (SHANGDONG LUYE NATURAL DRUG RESEARCH AND DEVELOPMENT CO., …, priority 2006, published 2010).
Where two headings read alike, the source gives them in different places.

Assays:
HSC-T6 cells = test: Inhibitory effect of RA on HSC-T6 cell growth (MTT); assay type: cell-based; conditions: for inhibition at 0.1 µg/mL / inhibition at 1 µg/mL / inhibition at 10 µg/mL / inhibition at 50 µg/mL / inhibition at 100 µg/mL: HSC-T6, read-out: Inhibition rate (%); for inhibition at 0.1 µg/mL: 0.1 mg/L; for inhibition at 1 µg/mL: 1 mg/L; for inhibition at 10 µg/mL: 10 mg/L; for inhibition at 50 µg/mL: 50 mg/L; for inhibition at 100 µg/mL: 100 mg/L
Text: Cells and experimental groups: HSC cell line was HSC-T6 (Shanghai Biosis Biotechnology Co. Ltd.), with the phenotype of active HSC. The cells were divided into groups for 0, 2.5, 5, 10, 20, and 40 μmol·L^−1 of RA. MTT method (Ye T and Liu X C, Effect of Pentoxifilline on Proliferation of Mesangial Cell Cultured in glucose-rich Medium and on CTGF Expression, Chinese Pharmacological Bulletin, 2004, 20(8): 883-885) was used to determine the effective RA concentration. Effects of RA on HSC-T6 proliferation and CTGF expression were examined.
A 1000 mg/L stock solution of RA in DMEM medium was prepared, and filtered through 0.22 μm microfilter to remove bacteria. The stock was then aliquoted in appropriate containers and stored at −20° C. in dark. It is good for use within 2 weeks. DMEM supplemented with 2% fetal bovine serum (FBS) was used to dilute the stock to desired concentrations before use.
HSC-T6 cells were cultured in DMEM supplemented with 100 U·mL^−1 penicillin, 100 U·mL^−1 streptomycin, and 10% FBS at 37° C., 5% CO2, and saturated humidity. Medium was changed every other day. The culture was digested with 0.002% EDTA and 0.25% trypsin at 80-90% confluence. And the cells were passaged at 1:4.
HSC-T6 cells at logarithmic phase after thawed were digested with trypsin and seeded to 96-well plate in DMEM supplemented with 5% FBS at the density of 1×10^4. After 24 hours culture, different concentrations of RA were added according to table 1. Each concentration of RA was added to 6 wells. Blank wells were designed to serve as control. […] The supernatant was discarded after 4 hours of incubation, and […] of dimethyl sufoxide (DMSO) was added to each well to obtain cell lysate, which was then shaken well before detected for OD value on ELISA reader (492 nm). Cell growth inhibition rates were calculated.

CTGF = test: Western blot of intracellular CTGF protein expression in PTECs; assay type: cell-based; conditions: for CTGF expression: 72 h, relative OD of band
Method: Western blot method was used to detect intracellular CTGF expression. PTEC cells at logarithmic phase were seeded to 96-well plate at the density of 1×10^5/mL. The medium was replaced with serum-free DMEM 24 hours later and the cell culture was cultured statically for 24 hours. Treat the wells as mentioned above. 72 hours later, cellular protein was extracted from the cell lysate according to modified Lowry method (Peterson G L. A simplification of the protein assay method of Lowry et al, which is more generally applicable. Anal Biochem, 1977, 83:346). 75 μg of total protein was loaded on each lane and all lanes were subject to 12% SDS-PAGE before the protein was transferred onto nitrocellulose membrane. Dye with Ponceau S (Sigma) to confirm transference and mark relative molecular weight standards. The membrane was then blocked in 5% solution of skimmed milk powder in TBST for 1 hour at room temperature. After washing, multiclonal goat-anti-rat anti-CTGF antibody (1:500, from Santa Cruz Co. Ltd.) was added and incubated overnight at 4° C. Then HRP-labeled anti-goat IgG secondary antibody (1:2 500, from Santa Cruz Co. Ltd.) was added and incubated at 37° C. for 1 hour. After rinsing, develop with 3,3-diaminobenzidine (DAB). Relative OD values of each band were analysed and the data are presented as χ±s. SPSS software was used in statistical analysis. ANOVA was applied for multi-group comparison.

CRF rats = test: CRF induced by 5/6 nephrectomy in rats; assay type: in vivo, Sprague Dawley rats
Method: 130 rats were randomly divided into 13 groups, with 10 animals in each group, namely, a normal control group, a model group, methylprednisolone p.o. Group at 12 mg/kg, RA i.v. groups at 2.5 mg/kg, 5 mg/kg, 25 mg/kg, 75 mg/kg, and 150 mg/kg of RA, and RA p.o. groups at 5 mg/kg, 10 mg/kg, 50 mg/kg, 150 mg/kg, and 300 mg/kg of RA. Apart from the normal control group, all other rats were induced to CRF by cutting off 5/6 of the kidneys. 2/3 of the left kidney was removed in the first operation, and one week later the right kidney in the second operation. Dosing started one week after the second operation via p.o. or i.p. routes. Blood was collected from eyepit at week 4 and week 8 to determine creatinine and urea nitrogen levels in sera. 5 animals in each group were sacrificed at week 4 and […] were sacrificed at the end of the study. Pathological changes in renal function were observed through HE and PAS staining of histopathological sections.

`O=C(/C=C/c1ccc(O)c(O)c1)O[C@H](Cc1ccc(O)c(O)c1)C(=O)O` [RA, R(+)2-{[3-(3,4-dihydroxylphenyl-(oxo-2-propenyl)oxy]3,4-dihydroxylphenylpropionic acid]}] showed an inhibition at 0.1 µg/mL (HSC-T6 cells; 12 h) of 9.8 ± 2.3%, an inhibition at 0.1 µg/mL (HSC-T6 cells; 24 h) of 12.1 ± 2.2% and an inhibition at 0.1 µg/mL (HSC-T6 cells; 48 h) of 14.4 ± 2.3%. The inhibition at 1 µg/mL (HSC-T6 cells; 12 h) was 20.7 ± 2%, the inhibition at 1 µg/mL (HSC-T6 cells; 24 h) was 23 ± 2% and the inhibition at 1 µg/mL (HSC-T6 cells; 48 h) was 25.3 ± 2.1%. The inhibition at 10 µg/mL (HSC-T6 cells; 12 h) was 37.2 ± 2.6%, the inhibition at 10 µg/mL (HSC-T6 cells; 24 h) was 38.6 ± 1.9% and the inhibition at 10 µg/mL (HSC-T6 cells; 48 h) was 38.9 ± 3.2%. For the same compound, the inhibition at 50 µg/mL (HSC-T6 cells; 12 h) was 52.3 ± 4.7%, the inhibition at 50 µg/mL (HSC-T6 cells; 24 h) was 54.6 ± 4.6% and the inhibition at 50 µg/mL (HSC-T6 cells; 48 h) was 55.2 ± 3.5%. It also gave an inhibition at 100 µg/mL (HSC-T6 cells; 12 h) of 57.2 ± 2.3%, an inhibition at 100 µg/mL (HSC-T6 cells; 24 h) of 59.6 ± 2.1% and an inhibition at 100 µg/mL (HSC-T6 cells; 48 h) of 61.8 ± 2.2%. For the same compound, the “HSC-T6 proliferation compared to the control group” value (HSC-T6 cells; different concentrations of RA) was “significantly inhibited HSC-T6 proliferation”, the “intracellular CTGF expression compared with the HG group” value (CTGF; 10 mg/L and 50 mg/L RA) was “significantly down-regulated” and the CTGF expression (CTGF; HG + 10 mg/L RA) was 5244 ± 106. For the same compound, the CTGF expression (CTGF; HG + 50 mg/L RA) was 5345 ± 95, the Serum urea nitrogen (CRF rats; 4 weeks, p.o. 5 mg/kg) was 20.21 ± 2.22 mg/dL and the Serum urea nitrogen (CRF rats; 4 weeks, p.o. 50 mg/kg) was 19.95 ± 2.20 mg/dL. It also gave a Serum urea nitrogen (CRF rats; 8 weeks, p.o. 5 mg/kg) of 25.98 ± 2.72 mg/dL, a Serum creatinine (CRF rats; 8 weeks, p.o. 50 mg/kg) of 1.92 ± 0.32 mg/dL and a Serum creatinine (CRF rats; 8 weeks, p.o. 300 mg/kg) of 1.74 ± 0.36 mg/dL. For the same compound, the “renal pathological changes (HE, PAS)” value (CRF rats; week 8) was “alleviated by RA treatment in a dose-dependent manner”.
